Data set [1] has as its target T1, KRAS G12D (Homo sapiens, UniProt P01116, G12D).
The test system of data set [2] is SW620. Put plainly: Cell proliferation experiment (CellTiter-Glo). Format: cell-based. The settings on record: read-out: IC50(nM) SW620. (ATP-based viability assays read luminescence as a measure of living cells.)
For data set [3], the system named is H358. Put plainly: Cell proliferation experiment (CellTiter-Glo). Format: cell-based. The conditions noted are these: H358, KRAS mutation type G12C, 96 h incubation.
A short description of data set [4]: in vitro. The conditions noted are these: dog, microsomes.
Data set [5] is described as follows: in vitro. The conditions noted are these: mouse, microsomes.
Data set [6] in a line: in vitro. The settings on record: rat, microsomes.
The target in data set [7] is T1, KRAS G12D. Kind of data set: cell-based. The conditions noted are these: AGS.
For data set [8], the system named is AGS. Put plainly: Cell proliferation experiment (CellTiter-Glo). Type of data set: cell-based. The settings on record: read-out: IC50(nM) AGS.
Data set [9] can be described thus: in vitro. The settings on record: human, microsomes.

Read-outs that look alike come from different tables or passages of the source.

T1 sequence (P01116 1-188 isoform P01116-2 G12D): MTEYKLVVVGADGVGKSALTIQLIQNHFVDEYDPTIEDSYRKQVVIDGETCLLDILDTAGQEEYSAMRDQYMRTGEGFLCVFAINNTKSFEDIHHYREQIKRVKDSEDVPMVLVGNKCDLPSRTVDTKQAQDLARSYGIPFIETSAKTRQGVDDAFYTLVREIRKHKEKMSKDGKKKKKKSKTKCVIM

In [1], `CCc1c(F)ccc2cc(O)cc(-c3ncc4c(N5CCC[C@@](C)(O)C5)nc(OCC5(CN6CCC(Oc7cc(-c8cn([C@H](C(=O)N9C[C@H](O)C[C@H]9C(=O)N[C@@H](C)c9ccc(-c%10scnc%10C)cc9)C(C)C)nn8)ccn7)CC6)CC5)nc4c3F)c12` [Compound 136] returned a DC50 of 14 nM. Moreover, the IC50 in data set [2] (Homo sapiens, SW-620, 96 h) is 53 nM; in data set [3] (Homo sapiens, NCI-H358), 6.6 nM; in data set [8] (Homo sapiens, AGS, 96 h) it was 10 nM. Also, the microsomal CLint in data set [4] came out at 20.8 µL/min/mg; in data set [5] it was 22.1 µL/min/mg; in data set [6], 8 µL/min/mg; in data set [9], 19.6 µL/min/mg. In addition, the Dmax in [7] is 95%.

In [1], `C=C1CN2[C@@H](COC(=O)N3CCC4(CC3)CC(c3cn([C@H](C(=O)N5C[C@H](O)C[C@H]5C(=O)N[C@@H](C)c5ccc(-c6scnc6C)cc5)C(C)C)nn3)C4)CC[C@@]2(COc2nc(N3CCC[C@@](C)(O)C3)c3cnc(-c4cc(O)cc5ccc(F)c(CC)c45)c(F)c3n2)C1` [Compound 143] gave a DC50 of 12 nM. The IC50 in data set [2] (Homo sapiens, SW-620, 96 h) came to 58 nM; in [3] (Homo sapiens, NCI-H358) it was 24 nM; in data set [8] (Homo sapiens, AGS, 96 h), 16 nM. The Dmax in data set [7] stood at 95%.

With `C#Cc1c(F)ccc2cc(O)cc(-c3ncc4c(N5CCCn6nc(C(=O)N(C)C)cc6C5)nc(OCC5(CN6CCC(COc7ccc(C(=O)N[C@H](C(=O)N8C[C@H](O)C[C@H]8C(=O)N[C@@H](C)c8ccc(-c9scnc9C)cc8)C(C)(C)C)cc7)CC6)CC5)nc4c3F)c12` [Compound 89], the IC50 in data set [2] is 1420 nM; in [3], 635 nM; in data set [8], 193 nM.

“(2S,4R)-1-((S)-2-(4-(5-(7-((7-(8-ethyl-7-fluoro-3-hydroxynaphthalen-1-yl)-8-fluoro-4-((R)-3-hy droxy-3-methylpiperidin-1-yl)pyrido[4,3-d]pyrimidin-2-yl)oxy)methyl)cyclopropyl)methyl)-2,7-azaspiro[3.5]nonan-2-yl)pyrazin-2-yl)-1H-1,2,3-triazol-1-yl)-3-methylbutanoyl)-4-hydroxy-N-(( R)-2-hydroxy-1-(4-(4-methylthiazol-5-yl)phenyl)ethyl)pyrrolidine-2-carboxamide [Compound 170]”: the figures for the IC50 in [2], in data set [3] and in [8] were 19 nM, 8.5 nM and 3.6 nM, respectively.

Consider `CCc1c(F)ccc2cc(O)cc(-c3ncc4c(N5CCC[C@@](C)(O)C5)nc(OCC5(CN6CCC(Oc7cnc(-c8cn([C@H](C(=O)N9C[C@H](O)C[C@H]9C(=O)N[C@@H](CO)c9ccc(-c%10scnc%10C)cc9)C(C)C)nn8)cn7)CC6)CC5)nc4c3F)c12` [Compound 178], for which the figures for the IC50 in data set [2], in [3] and in [8] were 9.4 nM, 5.7 nM and 2.5 nM, respectively.

For “(2S,4R)-1-((S)-2-(4-(5-((1-((1-(((7-(8-ethyl-7-fluoro-3-hydroxynaphthalen-1-yl)-8-fluoro-4-((R)-3-hydroxy-3-methylpiperidin-1-yl)pyrido[4,3-d]pyrimidin-2-yl)oxy)methyl)cyclopropyl)methyl) piperidin-4-yl)oxy)pyrazin-2-yl)-1H-1,2,3-triazol-1-yl)-3-methylbutanoyl)-4-hydroxy-N-((1R,2R )-2-hydroxy-3-methyl-1-(4-(4-methylthiazol-5-yl)phenyl)butyl)pyrrolidine-2-carboxamide [Compound 184]”, the figures for the IC50 in data set [2], in [3] and in [8] were 11 nM, 15 nM and 2.7 nM, respectively.

In data set [1], `CCc1c(F)ccc2cc(O)cc(-c3ncc4c(N5CCC[C@@](C)(O)C5)nc(OCC5(CN6CCC(OCc7ccc(-c8cn([C@H](C(=O)N9C[C@H](O)C[C@H]9C(=O)N[C@@H](C)c9ccc(-c%10scnc%10C)cc9)C(C)C)nn8)cc7)CC6)CC5)nc4c3F)c12` [Compound 93] yielded a DC50 of 11 nM. In addition, the IC50 in data set [2] (Homo sapiens, SW-620, 96 h) came out at 86 nM; in data set [3] (Homo sapiens, NCI-H358) it was 20 nM; in data set [8] (Homo sapiens, AGS, 96 h), 6.8 nM. Further, the microsomal CLint in data set [4] turned out to be 28.5 µL/min/mg; in [5], 8.3 µL/min/mg; in data set [6], 10.9 µL/min/mg; in data set [9], 23.5 µL/min/mg. In [7], this molecule yielded a Dmax of 95%.

`CCc1c(F)ccc2cc(O)cc(-c3ncc4c(N5CCC[C@@](C)(O)C5)nc(OCC5(CN6CCC7(CC6)CN(Cc6cnc(-c8cn([C@H](C(=O)N9C[C@H](O)C[C@H]9C(=O)N[C@@H](C)c9ccc(-c%10scnc%10C)cc9)C(C)C)nn8)cn6)C7)CC5)nc4c3F)c12` [Compound 189]: the IC50 in data set [2] came to 13 nM; in data set [3] it was 15 nM; in data set [8], 2.9 nM.

With `CCc1c(F)ccc2cc(O)cc(-c3ncc4c(N5CCC[C@@](C)(O)C5)nc(OCC5(CN6CCN(C7CN(c8cnc(-c9cn([C@H](C(=O)N%10C[C@H](O)C[C@H]%10C(=O)N[C@@H](C)c%10ccc(-c%11scnc%11C)cc%10)C(C)C)nn9)cn8)C7)CC6)CC5)nc4c3F)c12` [Compound 183], the values for the IC50 in data set [2], in [3] and in [8] were 11 nM, 12 nM and 3 nM, respectively.

In the case of “(2S,4R)-1-((2R)-2-(3-(3-(4-((1-((7-(8-ethyl-7-fluoro-3-hydroxynaphthalen-1-yl)-8-fluoro-4-((R) 3-hydroxy-3-methylpiperidin-1-yl)pyrido[4,3-d]pyrimidin-2-yl)oxy)methyl)cyclopropyl)methyl) piperazin-1-yl)pyrrolidin-1-yl)isoxazol-5-yl)-3-methylbutanoyl)-4-hydroxy-N-((S)-1-(4-(4-meth ylthiazol-5-yl)phenyl)ethyl)pyrrolidine-2-carboxamide [Compound 166]”, the 50% inhibitory concentration (IC50) in data set [2] is 33 nM; in [3], 21 nM; in data set [8], 4.9 nM.

The molecule `CCc1c(F)ccc2cc(O)cc(-c3ncc4c(N5CCC[C@@](C)(O)C5)nc(OCC5(CN6CCC7(CC6)CN(c6ccc(-c8cn([C@H](C(=O)N9C[C@H](O)C[C@H]9C(=O)N[C@@H](C)c9ccc(-c%10scnc%10C)cc9)C(C)C)nn8)cc6)C7)CC5)nc4c3F)c12` [Compound 75] displayed a DC50 in data set [1] of 24 nM. In addition, the IC50 in [2] (Homo sapiens, SW-620, 96 h) turned out to be 122 nM; in [3] (Homo sapiens, NCI-H358), 40 nM; in [8] (Homo sapiens, AGS, 96 h), 11 nM. Further, the microsomal CLint in data set [4] came to 22.1 µL/min/mg; in [5], 8.6 µL/min/mg; in data set [6], 20.7 µL/min/mg; in data set [9], 1 µL/min/mg. In data set [7], this molecule yielded a Dmax of 95%.

One may read the IC50 as the midpoint of a concentration-inhibition curve. As usually defined, the microsomal CLint is a measure of how fast metabolising enzymes remove a compound, apart from limits set by blood flow. The low end stands for greater metabolic stability, the high end for faster metabolism.

Source of the values: patent EP4631940A1, “COMPOUND TARGETING PAN-KRAS PROTEIN DEGRADATION AGENT AND USE THEREOF” (Betta Pharmaceuticals Co., Ltd., priority 2022, dated 2024).
